A short description of one data set: Rat plasma stability. It counts as in vitro ADME. To be noted: 3 μM, 37° C. As to the method: Method: Assay was carried out in 96-well microtiter plates. Compounds were incubated in replicates (n=2) for 0, 5, 15, 30, and 45 minutes at 37° C. Reaction mixtures (20 μL) contained a final concentration of 3 μM test compound in fresh Sprague Dawley rat plasma. Eucatropine is a positive control to verify assay performance. Linear regression of semi-log plot of % remaining of compounds versus time used to determine the half-life t1/2 values.

The nature of data set [1]: CD-1 mouse plasma stability. It counts as in vitro ADME. To be noted: 3 μM, 37° C. The procedure: Method: Assay was carried out in 96-well microtiter plates. Compounds were incubated in replicates (n=2) for 0, 5, 15, 30, and 45 minutes at 37° C. Reaction mixtures (20 μL) contained a final concentration of 3 μM test compound in fresh CD-1 mouse plasma. Eucatropine included as positive control to verify assay performance. Linear regression of semi-log plot of % remaining of compounds versus time used to determine the half-life t1/2 values.

The next data set is described as follows: Human plasma stability. Type of data set: in vitro ADME. To be noted: 3 μM, 37° C. The procedure:
Method: Assay was carried out in 96-well microtiter plates. Compounds were incubated in replicates (n=2) for 0, 5, 15, 30, and 45 minutes at 37° C. Reaction mixtures (20 μL) contained a final concentration of 3 μM test compound in human plasma. Eucatropine included as positive control to verify assay performance. Linear regression of semi-log plot of % remaining of compounds versus time used to determine the half-life t½ values.

Data set [2] can be described thus: Mouse plasma stability (Compound 1). It counts as in vitro ADME. To be noted: 37° C.
Data set [3] in a line: Plasma PK of Int 3-3 in CD-1 mice (study c). The settings on record: after iv Int 3-3 8.8 mg/kg. Type of data set: in vivo. The procedure:
Objectives: to determine the plasma pharmacokinetics of Int 3-3 following a single intravenous infusion of Int 3-3 at 8.83 mg/kg in CD-1 mice
PK measurements: compare PK parameters C0, CL, Vdss, Cmax, tmax, t1/2, AUC(0-t), AUC(0-inf), MRT(0-t), MRT(0-inf) for Int 3-3.

The nature of data set [4]: Metabolic stability in liver hepatocytes, mouse. Type of data set: in vitro ADME.
Data set [5] can be described thus: Metabolic stability in liver hepatocytes, human. It counts as in vitro ADME.
Data set [6] can be described thus: Metabolic stability in liver hepatocytes, dog. Type of data set: in vitro ADME.
A short description of data set [7]: Metabolic stability in liver hepatocytes, monkey. It counts as in vitro ADME.
The next data set can be described thus: Rat liver S9 stability. Type of data set: in vitro ADME.
Another data set in a line: Human liver S9 stability. It counts as in vitro ADME.
A short description of data set [8]: Monkey liver S9 stability. It counts as in vitro ADME.
A further data set in a line: Dog liver S9 stability. It counts as in vitro ADME.
The next data set is described as follows: Mouse liver S9 stability. It counts as in vitro ADME.
The nature of data set [9]: Comparative plasma PK of Compound 1 versus Int 1-4 in male CD-1 mice (study b). Type of data set: in vivo. As to the method: Objectives: to compare the plasma pharmacokinetics and stability of Compound 1 with its non-phosphorylated SMDC analog (Int 1-4) and in plasma following a single intravenous infusion administration of Compound 1 at 11.6 mg/kg and 23.2 mg/kg with Int 1-4 (formulation F1 & F2) at 10.0 mg/kg in male CD-1 mice
PK measurements: compare PK parameters C0, CL, Vdss, Cmax, tmax, t1/2, AUC(0-t), AUC(0-inf), MRT(0-t), MRT(0-inf) for Compound 1 and Int 1-4

Where [10] appears, read: negative value indicates compound is stable.

Regarding `CC1CC(OC(=O)C(O)c2ccccc2)CC(C)(C)N1C` (centres unmarked) [Eucatropine, reference compound], the “Slope Mean ± SE” value is given as −0.007881 ± 0.00112 in “Rat plasma stability” (Sprague Dawley rat plasma); −0.03084 ± 0.003016 in data set [1] (in min-1 (unit assumed)); −0.04591 ± 0.003277 in the data set “Human plasma stability” (semi-log plot of % remaining versus time, in min-1 (unit assumed)); −0.03084 ± 0.003016 in data set [2] (3 μM). The half-life at 3 μM in the data set “Rat plasma stability” (fresh Sprague Dawley rat plasma, read-out: t1/2 Mean ± SE) is 87.9 ± 12.5 min; in data set [1] (fresh CD-1 mouse plasma, read-out: t1/2 Mean ± SE), 22.5 ± 2.2 min; in “Human plasma stability” (read-out: t1/2 Mean ± SE), 15.1 ± 1.1 min; in data set [2] (CD-1, 3 μM, read-out: t1/2 Mean ± SE), 22.5 ± 2.2 min.
Take `[2H]C([2H])([2H])Oc1cc(OC([2H])([2H])[2H])c2oc(COC(=O)Nc3ccn([C@@H]4O[C@H](CO)[C@@H](O)C4(F)F)c(=O)n3)cc2c1` [Int 3-3]: the AUC0-inf/AUC0-last in data set [3] is reported as 101%. In data set [3] (mouse), the AUC(0-t) was found to be 3480 ng·h/mL, the C0 stood at 45900 ng/mL, the clearance worked out at 43.3 mL/min/kg and the half-life is 74.4 min. In addition, the AUC(0-inf) in data set [3] (mouse, read-out: AUC0-inf) worked out at 3510 ng·h/mL. Besides, the MRT inf in data set [3] (mouse, read-out: MRT0-inf) came to 46 min. In data set [3] (mouse, read-out: MRT0-last), the MRT last stood at 42.2 min. The Vd in data set [3] (mouse, read-out: Vdss) came out at 1.83 L/kg.
As for `C=CCN1CC[C@]23c4c5ccc(O)c4O[C@H]2C(=O)CC[C@@]3(O)[C@H]1C5` [Naxalone], the “Slope Mean ± SE” value in data set [4] is listed as −0.01828 ± 0.000731; in data set [5], −0.01335 ± 0.000878; in data set [6], −0.01302 ± 0.001119; in [7] it was −0.02948 ± 0.001002. Also, the “t1/2 mean ± SE” value in data set [4] was 37.9 ± 1.5 min; in data set [5] it was 51.9 ± 3.4 min; in data set [6] (setting [10]) it was 53.2 ± 4.6 min; in data set [7] (setting [10]), 23.5 ± 0.8 min.
For `COc1cc2ccc(=O)oc2cc1O` [Scopoletin, reference compound], the “Slope Mean ± SE” value was −0.03134 ± 0.00198 in the data set “Rat liver S9 stability” (rat liver S9), −0.1391 ± 0.01406 in data set [8] (monkey liver S9), −0.03892 ± 0.001665 in the data set “Dog liver S9 stability” (dog liver S9) and −0.06127 ± 0.006525 in the data set “Mouse liver S9 stability” (mouse liver S9). Further, the half-life in “Rat liver S9 stability” (rat liver S9, read-out: t1/2 Mean ± SE) was determined as 22.1 ± 1.4 min; in “Human liver S9 stability” (human liver S9, read-out: t1/2 Mean ± SE), 8.2 ± 0.2 min; in data set [8] (monkey liver S9, read-out: t1/2 Mean ± SE) it was 5 ± 0.5 min; in “Dog liver S9 stability” (dog liver S9, read-out: t1/2 Mean ± SE), 17.8 ± 0.8 min; in “Mouse liver S9 stability” (mouse liver S9, read-out: t1/2 Mean ± SE) it was 11.3 ± 1.2 min. In addition, the microsomal CLint was determined as 12.5 ± 0.792 µL/min/mg in the data set “Rat liver S9 stability” (rat, liver S9, rat liver S9, read-out: CLint Mean ± SE); 33.8 ± 0.92 µL/min/mg in the data set “Human liver S9 stability” (human, liver S9, human liver S9, read-out: CLint Mean ± SE); 55.6 ± 5.62 µL/min/mg in [8] (monkey, liver S9, monkey liver S9, read-out: CLint Mean ± SE); 15.6 ± 0.666 µL/min/mg in the data set “Dog liver S9 stability” (dog, liver S9, dog liver S9, read-out: CLint Mean ± SE); 24.5 ± 2.61 µL/min/mg in the data set “Mouse liver S9 stability” (mouse, liver S9, mouse liver S9, read-out: CLint Mean ± SE).
Turning to Gemcitabine monophosphate, in data set [9] (after iv Compound 1 11.6 mg/kg), the AUC0-last came out at 0.840 ng·h/mL, the Cmax was 33.6 ng/mL, the MRT0-last was 1.79 min and the time of peak concentration (Tmax) amounted to 1.5 min. In data set [9] (after iv Compound 1 23.2 mg/kg), this compound displayed an AUC0-last of 1.18 ng·h/mL, an AUC(0-inf) of 1.44 ng·h/mL, a Cmax of 30.4 ng/mL and an MRT0-inf of 3.3 min. Also, in data set [9] (after iv Compound 1 23.2 mg/kg), the MRT0-last worked out at 2.38 min, the time to peak (Tmax) was 1.5 min and the t1/2 was 1.64 min.

In general, AUC(0-t) refers to exposure summed from dosing to a finite time, without extrapolation to infinity. The clearance is the volume of plasma or blood freed of the substance per unit of time. The term Cmax denotes the peak of the concentration-time curve. Broadly, the Tmax is the time at which the peak concentration occurs.

These data come from patent US11760773B2, “Small molecule drug conjugates of gemcitabine monophosphate” (MaveriX Oncology, Inc., priority 2018, dated 2023).
